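Where inhibition never reached the appropriate level, the endpoint shown equals the highest concentration tested. Otherwise, values were interpolated linearly from a five-concentration, 48-hour dose response in 96-well plates. GI50 = concentration required for 50% inhibition of growth. TGI: concentration producing complete growth inhibition.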

Test systems include SNB-19 CNS; EKVX NSCLC; A498 renal; NCI-H522 lung; SK-MEL-2 melanoma; SN12C renal; BT-549 breast; OVCAR-8 ovarian; SF-295 CNS; NCI-H460 lung.
Holding throughout (assay): inhibition of tumour cell growth, NCI panel, 48 h

As for `Clc1ccc(Cc2nc3cc(Cl)c(Cl)cc3n2CC2CCCN3CCCCC23)cc1` (stereo not given), the TGI in the experiment on SNB-19 CNS is 27.1 µM; in the experiment with EKVX NSCLC it was 23 µM; with A498 renal it was 27.5 µM; in the experiment on NCI-H522 lung, 24.6 µM; with SK-MEL-2 melanoma, 29.8 µM; in the experiment with SN12C renal, 25.4 µM. Besides, the TGI amounted to 26.1 µM in the experiment with BT-549 breast, 26.1 µM with OVCAR-8 ovarian, 29.2 µM with SF-295 CNS and 23.2 µM with NCI-H460 lung.

As to `O=[N+]([O-])c1ccc(CSC2=C(c3ccc(Cl)cc3)S/C(=C3\SC(SCc4ccc([N+](=O)[O-])cc4)=C(c4ccc(Cl)cc4)S3)S2)cc1`, the TGI in the experiment on SNB-19 CNS, with EKVX NSCLC, in the experiment on A498 renal, with NCI-H522 lung, in the experiment with SK-MEL-2 melanoma and in the experiment with SN12C renal was above 100 µM throughout. In addition, the TGI in the experiment with BT-549 breast, in the experiment on OVCAR-8 ovarian, in the experiment on SF-295 CNS and in the experiment on NCI-H460 lung was above 100 µM throughout.

In the case of `N#CC1=C(N)OC2=C(CCCc3ccc([N+](=O)[O-])cc32)C1c1ccc(Cl)cc1` (stereo not given), the TGI is above 100 µM in the experiment with SNB-19 CNS; 71.7 µM with EKVX NSCLC; 35.5 µM in the experiment on A498 renal; 31.7 µM in the experiment on NCI-H522 lung; 54.7 µM in the experiment with SK-MEL-2 melanoma; 6.78 µM in the experiment with SN12C renal. Besides, the TGI with BT-549 breast was 75.3 µM; in the experiment with OVCAR-8 ovarian, 62.6 µM; with SF-295 CNS it was above 100 µM; in the experiment on NCI-H460 lung it was 15.7 µM.

As for `CCOC(=O)c1cccc(N=NNc2cccc(C(=O)OCC)c2)c1`, the TGI was 46.2 µM with SNB-19 CNS; above 100 µM in the experiment on EKVX NSCLC; 86.1 µM in the experiment on A498 renal; 84.3 µM in the experiment on NCI-H522 lung; above 100 µM with SK-MEL-2 melanoma; 73.5 µM with SN12C renal. In addition, the TGI was above 100 µM in the experiment on BT-549 breast, 91.8 µM in the experiment on OVCAR-8 ovarian, 45.4 µM with SF-295 CNS and above 100 µM with NCI-H460 lung.

Turning to `CC[C@@]1(O)C(=O)OCc2c1cc1n(c2=O)Cc2c-1nc1ccc(N)cc1c2CC[Si](C)(C)C`, the TGI in the experiment with SNB-19 CNS is 11.1 µM; with EKVX NSCLC, 3.23 µM; in the experiment on A498 renal it was 0.0189 µM; in the experiment with NCI-H522 lung, 0.127 µM; in the experiment on SK-MEL-2 melanoma, 0.427 µM; with SN12C renal, below 0.01 µM. The TGI with BT-549 breast was 13.1 µM; in the experiment with OVCAR-8 ovarian it was 0.818 µM; in the experiment with SF-295 CNS, below 0.0417 µM; with NCI-H460 lung, below 0.013 µM.

Turning to `Cc1ccc([N+](=O)[O-])cc1S(=O)(=O)Nc1ccc(C2=NN(S(=O)(=O)c3cc([N+](=O)[O-])ccc3C)C(c3ccccc3O)C2)cc1` (stereo not given), the TGI is above 100 µM in the experiment on SNB-19 CNS; above 100 µM in the experiment on EKVX NSCLC; 83.9 µM in the experiment on A498 renal; above 100 µM in the experiment with NCI-H522 lung; above 100 µM in the experiment on SK-MEL-2 melanoma; above 100 µM with SN12C renal. Moreover, the TGI in the experiment with BT-549 breast, in the experiment on OVCAR-8 ovarian, in the experiment on SF-295 CNS and with NCI-H460 lung was above 100 µM each time.

For the compound `C=CCCCCCCCCCOC1C=CC(O)C(CO)O1` (stereo not given), the TGI in the experiment on SNB-19 CNS, with EKVX NSCLC, with A498 renal, with NCI-H522 lung, in the experiment with SK-MEL-2 melanoma and with SN12C renal was above 100 µM throughout. Also, the TGI is above 100 µM in the experiment with BT-549 breast, 37.4 µM in the experiment on OVCAR-8 ovarian, above 100 µM in the experiment with SF-295 CNS and 63.7 µM in the experiment on NCI-H460 lung.

For the compound `COc1ccc(/C=N/n2c(-c3ccccc3)n[nH]c2=O)c(OC)c1`, the TGI was 50.1 µM in the experiment with SNB-19 CNS; above 100 µM in the experiment with EKVX NSCLC; above 73.4 µM with A498 renal; above 74.3 µM with NCI-H522 lung; above 100 µM in the experiment on SK-MEL-2 melanoma; above 100 µM in the experiment with SN12C renal. For the same compound, the TGI in the experiment with BT-549 breast is above 44.6 µM; in the experiment on OVCAR-8 ovarian, above 87.6 µM; in the experiment with SF-295 CNS, above 100 µM; in the experiment with NCI-H460 lung it was above 100 µM.

For `COc1ccc(Cl)cc1NC(=O)O/N=C(\Cl)C(C)C`, the TGI with SNB-19 CNS is above 61.7 µM; with EKVX NSCLC, 13.5 µM; in the experiment with A498 renal, 46.8 µM; in the experiment with NCI-H522 lung, 2.46 µM; in the experiment on SK-MEL-2 melanoma it was 33.9 µM; with SN12C renal, 23.4 µM. In addition, the TGI with BT-549 breast was determined as 6.9 µM; with OVCAR-8 ovarian, 32.7 µM; with SF-295 CNS, 33.9 µM; with NCI-H460 lung it was 37.6 µM.

With `O=c1[nH]nc(-c2cccc([N+](=O)[O-])c2)[nH]1`, the TGI in the experiment on SNB-19 CNS, in the experiment on EKVX NSCLC, in the experiment on A498 renal, in the experiment on NCI-H522 lung, with SK-MEL-2 melanoma and in the experiment with SN12C renal was above 100 µM throughout. Moreover, the TGI with BT-549 breast, with OVCAR-8 ovarian, with SF-295 CNS and in the experiment on NCI-H460 lung was above 100 µM in each case.

`CC(C)C(Sc1nc(N)nc2nc[nH]c12)C(=O)O` (stereo not given): the TGI in the experiment with SNB-19 CNS, in the experiment on EKVX NSCLC, in the experiment with A498 renal, in the experiment on NCI-H522 lung, in the experiment on SK-MEL-2 melanoma and in the experiment with SN12C renal was above 100 µM each time. Also, the TGI in the experiment with BT-549 breast, with OVCAR-8 ovarian, with SF-295 CNS and in the experiment with NCI-H460 lung was above 100 µM throughout.

Take `Cc1n[nH]c(=O)c2c3c([nH]c12)-c1ccccc1C3`: the TGI with SNB-19 CNS, with EKVX NSCLC, in the experiment with A498 renal, in the experiment on NCI-H522 lung, in the experiment on SK-MEL-2 melanoma and with SN12C renal was above 100 µM each time. Further, the TGI in the experiment on BT-549 breast, in the experiment with OVCAR-8 ovarian, with SF-295 CNS and with NCI-H460 lung was above 100 µM throughout.

For the compound `CC(C)=CC(=O)c1[nH]c2ccccc2c1CC(=O)NCCc1cnc[nH]1`, the TGI in the experiment on SNB-19 CNS, in the experiment on EKVX NSCLC, in the experiment on A498 renal, in the experiment on NCI-H522 lung, in the experiment on SK-MEL-2 melanoma and with SN12C renal was above 100 µM throughout. For the same compound, the TGI in the experiment on BT-549 breast, in the experiment with OVCAR-8 ovarian, in the experiment on SF-295 CNS and in the experiment with NCI-H460 lung was above 100 µM each time.

Regarding `COc1cccc(C2c3cc4c(cc3OC(NNS(=O)(=O)c3ccc(C)cc3)C2C)OCO4)c1O` (stereo not given), the TGI was above 100 µM in the experiment with SNB-19 CNS; above 100 µM with EKVX NSCLC; 70.4 µM in the experiment on A498 renal; 35.9 µM in the experiment on NCI-H522 lung; 53 µM in the experiment on SK-MEL-2 melanoma; above 100 µM in the experiment with SN12C renal. Further, the TGI in the experiment on BT-549 breast was 68.8 µM; with OVCAR-8 ovarian it was above 100 µM; in the experiment on SF-295 CNS, 94.6 µM; in the experiment with NCI-H460 lung, 82 µM.

For the compound `COc1cc2c(cc1C)NC(=O)/C2=C/c1c(Cl)[nH]c2ccccc12`, the TGI in the experiment with SNB-19 CNS stood at 19.2 µM; in the experiment with EKVX NSCLC it was 20.9 µM; with A498 renal it was 16.6 µM; in the experiment on NCI-H522 lung, 20.5 µM; with SK-MEL-2 melanoma, 8.56 µM; in the experiment with SN12C renal, 16.7 µM. In addition, the TGI in the experiment with BT-549 breast was determined as 9.35 µM; with OVCAR-8 ovarian it was 26.4 µM; in the experiment with SF-295 CNS, 5.52 µM; in the experiment on NCI-H460 lung, 17.1 µM.

For the compound `O=C(c1ccccc1)c1nn(-c2cccc(Cl)c2)c2nc3nc(-c4ccccc4)cc(=O)n3nc12`, the GI50 with SNB-19 CNS, in the experiment with EKVX NSCLC, with A498 renal, with NCI-H522 lung, in the experiment on SK-MEL-2 melanoma and in the experiment with SN12C renal was above 25 µM throughout. Besides, the GI50 with BT-549 breast, in the experiment with OVCAR-8 ovarian, in the experiment on SF-295 CNS and in the experiment with NCI-H460 lung was above 25 µM each time. The TGI in the experiment on SNB-19 CNS, in the experiment with EKVX NSCLC, with A498 renal, with NCI-H522 lung, in the experiment on SK-MEL-2 melanoma and in the experiment with SN12C renal was above 25 µM each time. Moreover, the TGI with BT-549 breast, in the experiment with OVCAR-8 ovarian, with SF-295 CNS and in the experiment with NCI-H460 lung was above 25 µM throughout.
